# Data reported in publication PMC9137581, “Identification of a Novel Class of Anti-Melanogenic Compounds, (Z)-5-(Substituted benzylidene)-3-phenyl-2-thioxothiazolidin-4-one Derivatives, and Their Reactive Oxygen Species Scavenging Activities” (Antioxidants, 2022).
# Assays:
# [1] = test system: B16F10 cells; assay: Melanin content assay in α-MSH plus IBMX-stimulated cells; assay type: cell-based, murine; details: for reduction of α-MSH plus IBMX-induced increase in melanin content: 48 h, B16F10 cells; for effect on melanin content compared with kojic acid: analog at 5 µM
# Method: Briefly, B16F10 cells were seeded at a density of 1 × 10^5 cells per well in 6-well plates and allowed to adhere to the well bases under the same conditions that were used for cell culturing. […] In order to determine the melanin contents, the B16F10 cells that were exposed to α-MSH and IBMX for 48 h were rinsed with PBS twice and incubated in 200 µL of 1 N NaOH solution containing 10% dimethyl sulfoxide (DMSO) for 1 h at 60 °C. The cell lysates were transferred to a 96-well plate and the absorbances at 405 nm were measured using a microplate reader (VersaMax™, Molecular Devices, Sunnyvale, CA, USA). These experiments were performed individually in triplicate. B16F10 cells were seeded in 6-well culture plates and pretreated with analogs 1, 3, and 6 at concentrations of 0, 5, 10, or 20 µM and with analog 2 at 0, 2.5, 5, or 10 µM for 1 h. α-Melanocyte-stimulating hormone (α-MSH; 1 µM) and 3-isobutyl-1-methylxanthine (IBMX; 200 µM) were added sequentially in order to enhance melanin production. After incubation for 48 h at 37 °C, the melanin contents were assessed by measuring the well optical densities at 405 nm using a microplate reader. Kojic acid (10 or 20 µM) was used as a positive control.
# [2] = molecular target: T1, cellular tyrosinase in B16F10 cells (Mus musculus, UniProt P11344); assay: Cellular tyrosinase activity (L-DOPA oxidation in lysates); assay type: cell-based, murine; details: for inhibition of α-MSH plus IBMX-induced cellular tyrosinase activity compared with kojic acid: analog at 20 µM
# T1 construct: endogenous in cells; host or cells: B16F10 murine melanoma cells (ATCC), stimulated with α-MSH and IBMX
# T1 sequence (P11344 19-533): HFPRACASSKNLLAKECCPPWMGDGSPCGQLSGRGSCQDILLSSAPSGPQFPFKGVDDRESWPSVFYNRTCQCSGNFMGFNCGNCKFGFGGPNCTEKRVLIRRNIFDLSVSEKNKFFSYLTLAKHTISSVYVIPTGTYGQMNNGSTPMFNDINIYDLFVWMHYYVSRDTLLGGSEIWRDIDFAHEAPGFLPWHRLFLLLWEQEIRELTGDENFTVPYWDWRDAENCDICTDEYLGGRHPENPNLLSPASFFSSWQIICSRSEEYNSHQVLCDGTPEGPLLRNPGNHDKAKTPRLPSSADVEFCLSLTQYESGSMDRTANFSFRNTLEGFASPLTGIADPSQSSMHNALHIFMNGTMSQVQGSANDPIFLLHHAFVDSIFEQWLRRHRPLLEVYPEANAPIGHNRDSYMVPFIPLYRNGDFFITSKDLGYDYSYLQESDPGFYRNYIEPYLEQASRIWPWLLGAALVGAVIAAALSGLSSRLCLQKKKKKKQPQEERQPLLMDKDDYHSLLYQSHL
# Method: The cellular tyrosinase activity was examined by assessing the oxidation rate of L-DOPA, as was previously described, with a slight modification. In brief, B16F10 cells were seeded at a density of 1 × 10^5 cells/well in a 6-well plate and allowed to adhere to the well bases using the same conditions that were used for cell culturing. […] After incubation for 48 h under the same conditions that were used for cell culturing, the cells were rinsed twice with PBS and then exposed to 100 µL of a lysis buffer solution (90 µL of 50 mM phosphate buffer in pH 6.5, 5 µL of 2 mM PMSF, and 5 µL of 20% Triton X-100) and held for 30 min at −80 °C. After defrosting, the cell lysates were centrifuged at 12,000 rpm for 30 min at 4 °C. Then, 10 mM L-DOPA (20 µL) was mixed with the supernatants (80 µL) of the lysates in a 96-well plate. The absorbances of these mixtures were measured at 492 nm every 10 min for 1 h at 37 °C using a microplate reader (VersaMax™, Molecular Devices, Sunnyvale, CA, USA). All of these experiments were conducted individually in triplicate. […] Briefly, B16F10 cells were seeded in 6-well culture plates and pretreated with four different concentrations (0, 5, 10, or 20 µM) of each of the four analogs for 1 h, and then the cells were co-stimulated with α-MSH and IBMX for 48 h at 37 °C so as to increase their cellular tyrosinase activity. Their optical densities (ODs) were then measured using a microplate reader at 492 nm in order to quantify the dopachrome production. The inhibitory effect of each analog on cellular tyrosinase activity was evaluated using these ODs. Kojic acid (20 µM) was used as a positive control.
# [3] = molecular target: T2, mushroom tyrosinase (Agaricus bisporus, UniProt C7FF04); assay: Mushroom tyrosinase inhibition assay (L-tyrosine substrate); assay type: biochemical; details: for IC50: L-tyrosine substrate, means ± SEMs of triplicate determinations; for potency of mushroom tyrosinase inhibition relative to kojic acid: ratio of IC50 values versus kojic acid
# T2 construct: purchased Sigma-Aldrich
# T2 sequence (C7FF04 1-392 limits assumed): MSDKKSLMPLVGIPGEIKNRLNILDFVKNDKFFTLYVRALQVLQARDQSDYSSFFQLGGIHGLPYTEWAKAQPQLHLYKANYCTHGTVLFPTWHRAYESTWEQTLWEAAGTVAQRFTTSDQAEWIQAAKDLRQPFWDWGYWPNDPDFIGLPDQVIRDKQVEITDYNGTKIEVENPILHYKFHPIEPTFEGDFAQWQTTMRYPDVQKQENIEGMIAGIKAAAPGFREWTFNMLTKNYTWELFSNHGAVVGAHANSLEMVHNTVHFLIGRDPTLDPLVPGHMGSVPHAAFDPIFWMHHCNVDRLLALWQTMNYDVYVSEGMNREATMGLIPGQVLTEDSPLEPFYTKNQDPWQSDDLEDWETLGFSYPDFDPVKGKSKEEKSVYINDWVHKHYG
# Method: In order to examine the inhibitory effect of the (Z)-BPTT analogs on tyrosinase activity, commercially available mushroom tyrosinase (Sigma-Aldrich, St. Louis, MO, USA) was used. The mushroom tyrosinase-inhibitory activities of the analogs were determined as described previously with modification. Briefly, 20 µL (20 units) of an aqueous mushroom tyrosinase solution was added to each well of a 96-well microplate containing 170 µL of a substrate mixture consisting of 345 μM of L-tyrosine solution, 17.2 mM phosphate buffer (pH 6.5), and 10 µL of a (Z)-BPTT analog solution at different concentrations or 10 µL of a kojic acid solution (2, 10, or 50 μM). After incubating the assay mixtures for 30 min at 37 °C, the remaining tyrosinase activities were calculated from the amounts of dopachrome that were formed as determined by measuring their absorbance at 492 nm using a microplate reader (VersaMax™, Molecular Devices, Sunnyvale, CA, USA). The curves of the IC50 values that were derived from the X-axis of the inhibitor concentration versus the amount of product that was produced were determined by aligning the dose–response curve with the Y-axis. Inhibition experiments were performed in triplicate using three to six different concentrations of the (Z)-BPTT analogs or kojic acid. Log–linear curves and their equations were determined by using inhibition percentages at three to six analog concentrations. The individual IC50 values were determined by reading the concentrations on the Y-axis at 50% inhibition. The results are the means of three independent experiments.
# The tyrosinase-inhibitory activities were screened against mushroom tyrosinase using L-tyrosine as a substrate, as previously described. Kojic acid, a representative tyrosinase inhibitor, was used as a positive control. […]. All 13 of the (Z)-BPTT analogs inhibited tyrosinase activity in a concentration-dependent manner. The IC50 values are shown in Table 2, along with the analog substitutions.
inhibition of α-MSH plus IBMX-induced cellular tyrosinase activity compared with kojic acid [2],IC50 [3] [nM],potency of mushroom tyrosinase inhibition relative to kojic acid [3] [fold],"cellular tyrosinase activity as percentage of non-treated control ([2]; 10 µM, α-MSH plus IBMX co-stimulated) [%]",enhancement of inhibitory activity relative to analog 4 ([3]; ratio of IC50 values versus analog 4) [fold],Compound,reduction of α-MSH plus IBMX-induced increase in melanin content ([1]; 20 µM) [%],effect on melanin content compared with kojic acid [1],melanin suppression relative to kojic acid at 10 µM ([1]; 10 µM) [fold],reduction of α-MSH plus IBMX-induced increase in melanin content ([1]; 10 µM) [%],suppression of α-MSH plus IBMX-induced melanogenesis compared with kojic acid ([1]; analog at 2.5 µM),inhibition of cellular tyrosinase activity compared with kojic acid ([2]; analog at 5 µM)
more than kojic acid at 20 µM,1450 ± 40,12,–,–,"O=C1/C(=C/c2ccc(O)cc2)SC(=S)N1c1ccccc1 [Analog 1, (Z)-5-(4-Hydroxybenzylidene)-3-phenyl-2-thioxothiazolidin-4-one]",56.3,as effective as kojic acid at 20 µM,–,–,–,–
–,1380 ± 110,–,< 100,–,"O=C1/C(=C/c2ccc(O)c(O)c2)SC(=S)N1c1ccccc1 [Analog 2, (Z)-5-(3,4-Dihydroxybenzylidene)-3-phenyl-2-thioxothiazolidin-4-one]",–,–,4.1,89.6,as effectively as kojic acid at 10 µM,significantly inhibited tyrosinase activity more than kojic acid did at 20 µM
more than kojic acid at 20 µM,590 ± 30,29,–,–,"O=C1/C(=C/c2ccc(O)cc2O)SC(=S)N1c1ccccc1 [Analog 3, (Z)-5-(2,4-Dihydroxybenzylidene)-3-phenyl-2-thioxothiazolidin-4-one]",61.3,as effective as kojic acid at 20 µM,–,–,–,–
more than kojic acid at 20 µM,1880 ± 700,–,–,43,"COc1ccc(/C=C2\SC(=S)N(c3ccccc3)C2=O)cc1O [Analog 6, (Z)-5-(3-Hydroxy-4-methoxybenzylidene)-3-phenyl-2-thioxothiazolidin-4-one]",50.9,as effective as kojic acid at 20 µM,–,–,–,–
